This note sets out measurements from patent US5428168A, “Lactol PAF antagonists” (British Biotech Pharmaceuticals Limited, priority 1990, dated 1995).

T1 sequence (P25105 whole entry): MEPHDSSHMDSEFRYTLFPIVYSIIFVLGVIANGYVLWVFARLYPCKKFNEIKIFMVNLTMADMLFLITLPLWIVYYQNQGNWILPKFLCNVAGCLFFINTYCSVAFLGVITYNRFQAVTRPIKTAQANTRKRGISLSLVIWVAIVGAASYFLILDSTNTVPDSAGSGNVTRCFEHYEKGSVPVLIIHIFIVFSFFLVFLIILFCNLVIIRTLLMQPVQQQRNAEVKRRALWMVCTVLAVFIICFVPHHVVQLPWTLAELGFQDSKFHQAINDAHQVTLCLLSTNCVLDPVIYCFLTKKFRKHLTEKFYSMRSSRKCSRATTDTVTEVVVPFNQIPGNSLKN

This experiment concerns the target T1, PAF receptor (Homo sapiens, UniProt P25105).
T1 construct: Platelet concentrates were obtained from a hospital blood bank; from tissue; host or cells: human platelets (plasma membrane fraction of lysed platelets from hospital blood bank concentrates)
The experiment can be described thus: Inhibition of [3H]-PAF receptor binding to human platelet plasma membrane (isotopic labelling and filtration). Particulars: human platelet membranes, 0.5 nM [3H]-PAF, 0° C., 1 hour. The method, then:
Compounds of general formula I inhibit PAF-induced functions in both the cellular and tissue levels by changing the PAF binding to its specific receptor site. The ability of compounds of general formula I to inhibit the binding of PAF to its specific receptor binding site on human platelet plasma membranes was measured according to the pharmacological example. […] Platelet concentrates were obtained from a hospital blood bank. These platelet concentrates (500-2500 ml.) were centrifuged at 800 rpm for 10 minutes in a SORVALL RC3B centrifuge to remove the red blood cells present. (The word SORVALL is a trade mark.) The supernatant was subsequently centrifuged at 3,000 rpm in a SORVALL RC3B centrifuge to pellet the platelets present. The platelet rich pellets were resuspended in a minimum volume of buffer (150 mM NaCl, 10 mM Tris, 2 mM EDTA, pH 7.5) and layered onto Ficoll-Paque gradients, 9 ml platelet concentrate to 2 ml Ficoll, and centrifuged at 1,900 rpm for 15 minutes in a SORVALL RT6000 centrifuge. This step removes the residual red blood cells and other nonspecific material such as lymphocytes from the preparation. The platelets which form a band between the plasma and the Ficoll were removed, resuspended in the above buffer and centrifuged at 3,000 rpm for 10 minutes in a SORVALL RT6000 centrifuge. The pelleted platelets were resuspended in buffer (10 mM Tris, 5mM MgCl2, 2 mM EDTA, pH 7.0), snap freezed in liquid N2 and allowed to thaw slowly at room temperature in order to lyse the platelets. The latter step was repeated at least 3 times to ensure proper lysis. The lysed platelets were centrifuged at 3,000 rpm for 10 minutes in a SORVALL RT6000 centrifuge and resuspended in buffer. The latter step was repeated twice in order to remove any cytoplasmic proteins which may hydrolyse the […]. The prepared platelet membranes may be stored at -70° C. After thawing the prepared membranes were centrifuged in a SORVALL RT6000 at 3,000 rpm for 10 minutes and resuspended in assay buffer. The assay was conducted by preparing a series of Tris-buffered solutions of the selected antagonist of predetermined concentrations. […] Incubation was initiated by the addition of 100 μg of the isolated membrane fraction to each of the above solutions at 0° C. […] (The word WHATMAN is a trade mark.) The residue in each case was rapidly washed 4 times with 5 ml cold (4° C.) Tris-buffer solution. […] % Inhibition=[(TB-TBA)/SB]x100 where the specific binding SB=TB-NSB […]
Molecule `COc1ccc([C@H]2CC[C@H](OCCCCCc3cccnc3)O2)cc1OC` (relative stereo) [Example 5A, O-(5-(3-Pyridyl)pentyl)-5-(3,4-dimethoxyphenyl)-gamma-butyrolactol ether] gave an IC50 of 12000 nM.
For `COc1ccc([C@H]2CC[C@@H](OCCCCCc3cccnc3)O2)cc1OC` (relative stereo) [Example 5B, O-(5-(3-Pyridyl)pentyl)-5-(3,4-dimethoxyphenyl)-gamma-butyrolactol ether], the IC50 is 1500 nM.
Molecule `COc1ccc([C@H]2CC[C@H](OCCCCC#Cc3cccnc3)O2)cc1OC` (relative stereo) [Example 6A, O-(6-(3-Pyridyl)hex-5-ynyl)-5-(3,4-dimethoxyphenyl)-gamma-butyrolactol ether] showed an IC50 of 3000 nM. Compared with the last molecule, the IC50 is about 2-fold higher.
With `COc1ccc([C@H]2CC[C@H](OCCCC/C=C\c3cccnc3)O2)cc1OC` (relative stereo) [Example 7A, Z-O-(6-(3-Pyridyl)hex-5-enyl)-5-(3,4-dimethoxyphenyl)-gamma-butyrolactol ether] the figure was 12000 nM; with `COc1ccc([C@H]2CC[C@H](OC/C=C/c3cccnc3)O2)cc1OC` (relative stereo) [Example 10A, E-O-(3-(3-Pyridyl)prop-2-enyl)-5-(3,4-dimethoxyphenyl)-gamma-butyrolactol ether], 1000 nM.
With `COc1ccc([C@H]2CC[C@@H](OC/C=C/c3cccnc3)O2)cc1OC` (relative stereo) [Example 10B, E-O-(3-(3-Pyridyl)prop-2-enyl)-5-(3,4-dimethoxyphenyl)-gamma-butyrolactol ether] the figure was 150 nM; with `COc1ccc([C@H]2CC[C@@H](OCCCn3c(C)nc4cnccc43)O2)cc1OC` (relative stereo) [Example 30A, O-(3-(1H-2-Methylimidazo[4,5-c]pyridyl)propyl)-5-(3,4-dimethoxyphenyl)-gamma-butyrolactol ether], 25 nM.
With `COc1ccc(C2CCC(OCCC#Cc3cccnc3)O2)cc1OC` (stereo not drawn) [Example 2, O-(4-(3-Pyridyl)but-3-ynyl)-5-(3,4-dimethoxyphenyl)-gamma-butyrolactol ether] the figure was 4000 nM; with `COc1ccc(C2CCC(OCCCCc3cccnc3)O2)cc1OC` (stereo not drawn) [Example 3, O-(4-(3-Pyridyl)butyl)-5-(3,4-dimethoxyphenyl)-gamma-butyrolactol ether], 6000 nM.
Molecule `COc1ccc(C2CCC(OCCCC#Cc3cccnc3)O2)cc1OC` (stereo not drawn) [Example 4, O-(5-(3-Pyridyl)pent-4-ynyl)-5-(3,4-dimethoxyphenyl)-gamma-butyrolactol ether] registered an IC50 of 5000 nM. This IC50 and that of the molecule before are within 1.5-fold of each other.
With `COc1ccc(C2CCC(OCCCC/C=C\c3cccnc3)O2)cc1OC` (stereo not drawn) [Example 7B, Z-O-(6-(3-Pyridyl)hex-5-enyl)-5-(3,4-dimethoxyphenyl)-gamma-butyrolactol ether] the figure was 2000 nM; with `COc1ccc(C2CCC(OC(C)CCc3cccnc3)O2)cc1OC` (stereo not drawn) [Example 12, O-(1-Methyl-3-(3-pyridyl)propyl)-5-(3,4-dimethoxyphenyl)-gamma-butyrolactolether], 3000 nM.
To `COc1ccc(C2CCC(OCc3ccc(-n4c(C)nc5ccccc54)cc3)O2)cc1OC` (stereo not drawn) [Example 23, O-((4-(1H-2-Methylbenzimidazyl)phenyl)methyl)-5-(3,4-dimethoxyphenyl)-gamma-butyrolactol ether] belongs 900 nM; to `COc1ccc(C2CCC(OCc3ccc(Cn4c(C)nc5ccccc54)cc3)O2)cc1OC` (stereo not drawn) [Example 24, O-((4-(1H-2-Methylbenzimidazylmethyl)phenyl)methyl)-5-(3,4-dimethoxyphenyl)-gamma-butyrolactol ether], 2000 nM.
To `COc1ccc(C2CCC(OCCCn3c(C)nnc3C)O2)cc1OC` (stereo not drawn) [Example 29, O-(3-(3,5-Dimethyl-1,2,4-triazol-4-yl)propyl)-5-(3,4-dimethoxyphenyl)-gamma-butyrolactol ether] belongs 250 nM.
